Laboratory results: patent US20240009304A1, “USE OF NGF ANTIBODY IN CIPN PAIN” (Dartsbio Pharmaceuticals Ltd., priority 2020, published 2024)
Where “and” joins values, the source holds several entries; their conditions need not be identical. Identical values can stand only once.

Assays:
Assay type in all cases: in vivo
[1] = test system: vincristine-induced neuropathic pain model in SD rats; experiment: acetone cold allodynia, vincristine-induced neuropathic pain model; settings: s.c.
Experimental: (§1) All female SD rats were measured on day −5 (D-5) and day −4 (D-4) for basal values of von Frey mechanical allodynia and acetone cold allodynia (the day on formally establishing the model with paclitaxel administration was recorded as DO). SD rats were randomly divided into 5 groups according to body weight, which were blank control group, vehicle control (Vehicle control), s.c., D-3/D3/D9 group, DS002 0.1 mg/kg, s.c., D-3/D3/D9 group, DS002 0.5 mg/kg, s.c., D-3/D3/D9 group, DS002 2.5 mg/kg, s.c., D-3/D3/D9 group, respectively. Except for the blank control group, the other groups of animals were injected intraperitoneally with a chemotherapeutic agent solution on DO, D2, D4 and D6, respectively, to establish a chemotherapeutic agent-induced neuropathic pain model in SD rats. Wherein, von Frey is a stimulating material used in the measurement method of mechanical stimulation pain threshold; acetone is a stimulating substance used in the measurement method of cold pain threshold.
(§2) Except for the blank control group, the other four groups were administered subcutaneously with DS002 on D-3, D3 and D9, respectively, and the von Frey echanical allodynia and acetone cold allodynia were measured on D7, D14 and D8, D15, respectively. The mechanical paw withdrawal threshold and the score and frequency of acetone-induced foot withdrawal behavior at the corresponding time point were recorded (for testing and calculation methods, see Yoon et al., pain, 59(3), 369-376. & Flatters et al., pain, 2004, 109 (1-2):150-161).
(§3) With reference to the above-mentioned experimental method and Example 1, except for the blank control group, the other groups of animals were injected intraperitoneally with a vincristine solution (0.1 mg/kg) from DO to D9, respectively, to establish a vincristine-induced neuropathic pain model in SD rats, namely, the CIPN pain model.

[2] = test system: cisplatin-induced neuropathic pain model in SD rats; experiment: von Frey mechanical allodynia, cisplatin-induced neuropathic pain model; settings: for Mean value of mechanical paw withdrawal threshold: s.c.
Experimental: as §1, §2
(§4) With reference to the above-mentioned experimental method and Example 1, except for the blank control group, the animals of other groups were injected with a cisplatin solution (4 mg/kg) in the tail veins on DO and D6, respectively, to establish a cisplatin-induced neuropathic pain model in SD rats, namely the CIPN pain model.
(§5) The basal values of the mechanical allodynia and cold allodynia were measured on day 5 (D-5) and day 4 (D-4) before modeling. On day 3 (D-3), the normal rats were divided into 4 groups by random block method and administered according to their body weight. The average weight of animals in each group after grouping was about 250 g. As for the animals of blank control group, vehicle control, s.c., D-3/D3/D9/D16 group, test sample DS002, 0.02 mg/kg, s.c., D-3/D3/D9/D16 group and test sample DS002, 0.5 mg/kg, s.c., D-3/D3/D9/D16 group, the basal values of mechanical paw withdrawal threshold were 26.00±0.00 g, 23.95±1.63 g, 23.50±1.68 g and 22.77±1.71 g, respectively; the basal values of acetone-induced foot withdrawal behavior total score were 0.50±0.34, 0.55±0.31, 0.27±0.19 and 0.55±0.28, respectively; the basal values of the response frequency were 6.00±4.27%, 7.27±4.07%, 3.64±2.44% and […], respectively.

[3] = test system: cisplatin-induced neuropathic pain model in SD rats; experiment: acetone cold allodynia, cisplatin-induced neuropathic pain model; settings: for Mean value of response frequency of cold allodynia / Mean value of acetone-induced foot withdrawal behavior total score: s.c.
Experimental: as §2, §4, §5

[4] = test system: vincristine-induced neuropathic pain model in SD rats; experiment: von Frey mechanical allodynia, vincristine-induced neuropathic pain model; settings: for Mean value of mechanical paw withdrawal threshold: s.c.
Experimental: as §1, §2, §3

[5] = test system: paclitaxel-induced neuropathic pain model in SD rats; experiment: acetone cold allodynia, paclitaxel-induced neuropathic pain model; settings: s.c.
Experimental: as §1, §2
(§6) The above experimental method was used, except for the blank control group, the other groups of animals were injected intraperitoneally with a chemotherapeutic agent solution (4 mg/kg) on DO, D2, D4 and D6, respectively, to establish a paclitaxel-induced neuropathic pain model in SD rats, namely the CIPN pain model.

[6] = test system: paclitaxel-induced neuropathic pain model in SD rats; experiment: von Frey mechanical allodynia, paclitaxel-induced neuropathic pain model; settings: for Mean value of mechanical paw withdrawal threshold: s.c., D-3/D3/D9
Experimental: as §1, §2, §6

[7] = 0.1 mg/kg, D-3/D3/D9, D-4 basal value before administration
[8] = 0.5 mg/kg, D-3/D3/D9, D-4 basal value before administration
[9] = 2.5 mg/kg, D-3/D3/D9, D-4 basal value before administration
[10] = 0.5 mg/kg, D-3/D3/D9/D16, D22, listed as D5002

With “DS002: humanized recombinant monoclonal antibody targeting nerve growth factor, IgG1 subtype, kappa light chain; heavy/light chain SEQ ID NO:3 and 4” the “Mean value of response frequency of cold allodynia” value (from here on “Mean value … of cold allodynia”) ([1]; 0.1 mg/kg, D-3/D3/D9, D8) was 58.00±6.96% and 58.00%, the “Mean value of acetone-induced foot withdrawal behavior total score” value ([1]; 0.1 mg/kg, D-3/D3/D9, D15) was 3.00 and the “Mean value … of cold allodynia” value ([1]; 0.1 mg/kg, D-3/D3/D9, D15) was 42.00%. For the same substance, the “Mean value of acetone-induced foot withdrawal behavior total score” value [1, 7] was 0.10, the “Mean value … of cold allodynia” value [1, 7] was 2.00% and the “Mean value … of cold allodynia” value ([1]; 0.5 mg/kg, D-3/D3/D9, D8) was 44.00±7.77% and 44.00%. The “Mean value of acetone-induced foot withdrawal behavior total score” value ([1]; 0.5 mg/kg, D-3/D3/D9, D15) was 2.80, the “Mean value … of cold allodynia” value ([1]; 0.5 mg/kg, D-3/D3/D9, D15) was 34.00% and the “Mean value of acetone-induced foot withdrawal behavior total score” value [1, 8] was 0.30. For the same substance, the “Mean value … of cold allodynia” value [1, 8] was 4.00%, the “Mean value … of cold allodynia” value ([1]; 2.5 mg/kg, D-3/D3/D9, D8) was 44.00±4.99% and 44.00% and the “Mean value of acetone-induced foot withdrawal behavior total score” value ([1]; 2.5 mg/kg, D-3/D3/D9, D15) was 1.80. The “Mean value … of cold allodynia” value ([1]; 2.5 mg/kg, D-3/D3/D9, D15) was 24.00%, the “Mean value of acetone-induced foot withdrawal behavior total score” value [1, 9] was 0.30 and the “Mean value … of cold allodynia” value [1, 9] was 4.00%. The “Mean value of mechanical paw withdrawal threshold” value ([2]; 0.02 mg/kg, D-3/D3/D9/D16, D7) was 8.87 ± 1.98 g, the “Mean value of mechanical paw withdrawal threshold” value ([2]; 0.02 mg/kg, D-3/D3/D9/D16, D14) was 7.22 ± 0.77 g and the “Mean value of mechanical paw withdrawal threshold” value ([2]; 0.02 mg/kg, D-3/D3/D9/D16, D21) was 14.22 ± 2.63 g. The “Mean value of mechanical paw withdrawal threshold” value ([2]; 0.02 mg/kg, D-3/D3/D9/D16, D-5 basal value before administration) was 23.50 ± 1.68 g, the “Mean value of mechanical paw withdrawal threshold” value ([2]; 0.5 mg/kg, D-3/D3/D9/D16, D7) was 7.62 ± 1.18 g and the “Mean value of mechanical paw withdrawal threshold” value ([2]; 0.5 mg/kg, D-3/D3/D9/D16, D14) was 10.73 ± 1.60 g. For the same substance, the “Mean value of mechanical paw withdrawal threshold” value ([2]; 0.5 mg/kg, D-3/D3/D9/D16, D21) was 16.37 ± 2.36 g, the “Mean value of mechanical paw withdrawal threshold” value ([2]; 0.5 mg/kg, D-3/D3/D9/D16, D-5 basal value before administration) was 22.77 ± 1.71 g and the “mechanical paw withdrawal threshold of rats compared with the Vehicle control” value ([2]; summary in words) was “significantly increased”. For the same substance, the “Mean value … of cold allodynia” value ([3]; 0.02 mg/kg, D-3/D3/D9/D16, D8) was 7.27±4.07% and 7.27%, the “Mean value … of cold allodynia” value ([3]; 0.02 mg/kg, D-3/D3/D9/D16, D15) was 16.36±5.92% and 16.36% and the “Mean value … of cold allodynia” value ([3]; 0.02 mg/kg, D-3/D3/D9/D16, D22) was 9.09±4.15% and 9.09%. For the same substance, the “Mean value … of cold allodynia” value ([3]; 0.02 mg/kg, D-3/D3/D9/D16, D-4 basal value before administration) was 3.64±2.44% and 3.64%, the “Mean value … of cold allodynia” value ([3]; 0.5 mg/kg, D-3/D3/D9/D16, D8) was 7.27±4.07% and 7.27% and the “Mean value … of cold allodynia” value ([3]; 0.5 mg/kg, D-3/D3/D9/D16, D15) was 7.27±4.07% and 7.27%. For the same substance, the “Mean value of acetone-induced foot withdrawal behavior total score” value ([3]; 0.5 mg/kg, D-3/D3/D9/D16, D22) was 0.73, the “Mean value … of cold allodynia” value ([3]; 0.5 mg/kg, D-3/D3/D9/D16, D22) was 10.91% and the “Mean value of acetone-induced foot withdrawal behavior total score” value [3, 10] was 0.73±0.30. For the same substance, the “Mean value … of cold allodynia” value [3, 10] was 10.91±4.15%, the “Mean value … of cold allodynia” value ([3]; 0.5 mg/kg, D-3/D3/D9/D16, D-4 basal value before administration) was 5.45±2.82% and 5.45% and the “cold pain threshold of the rats compared with the vehicle control” value ([3]; summary in words) was “not significantly improved”. The “Mean value of mechanical paw withdrawal threshold” value ([4]; 0.1 mg/kg, D-3/D3/D9, D7) was 7.02 ± 1.05 g, the “Mean value of mechanical paw withdrawal threshold” value ([4]; 0.1 mg/kg, D-3/D3/D9, D14) was 9.76 ± 1.10 g and the “Mean value of mechanical paw withdrawal threshold” value ([4]; 0.1 mg/kg, D-3/D3/D9, D-5 basal value before administration) was 15.00 ± 0.00 g. For the same substance, the “Mean value of mechanical paw withdrawal threshold” value ([4]; 0.5 mg/kg, D-3/D3/D9, D7) was 8.20 ± 1.78 g, the “Mean value of mechanical paw withdrawal threshold” value ([4]; 0.5 mg/kg, D-3/D3/D9, D14) was 11.00 ± 0.94 g and the “Mean value of mechanical paw withdrawal threshold” value ([4]; 0.5 mg/kg, D-3/D3/D9, D-5 basal value before administration) was 15.00 ± 0.00 g. For the same substance, the “Mean value of mechanical paw withdrawal threshold” value ([4]; 2.5 mg/kg, D-3/D3/D9, D7) was 8.43 ± 0.92 g, the “Mean value of mechanical paw withdrawal threshold” value ([4]; 2.5 mg/kg, D-3/D3/D9, D14) was 13.31 ± 0.76 g and the “Mean value of mechanical paw withdrawal threshold” value ([4]; 2.5 mg/kg, D-3/D3/D9, D-5 basal value before administration) was 14.16 ± 0.60 g. The “mechanical paw withdrawal threshold of rats compared with the Vehicle control” value ([4]; summary in words) was “significantly increased”, the “Mean value of acetone-induced foot withdrawal response score” value ([5]; 0.1 mg/kg, D-3/D3/D9, D8) was 3.70 and the “Mean value … of cold allodynia” value ([5]; 0.1 mg/kg, D-3/D3/D9, D8) was 63.50%. The “Mean value of acetone-induced foot withdrawal response score” value ([5]; 0.1 mg/kg, D-3/D3/D9, D15) was 1.80, the “Mean value … of cold allodynia” value ([5]; 0.1 mg/kg, D-3/D3/D9, D15) was 33.40% and the “Mean value of acetone-induced foot withdrawal response score” value [5, 7] was 0.60. For the same substance, the “Mean value … of cold allodynia” value [5, 7] was 13.40%, the “Mean value of acetone-induced foot withdrawal response score” value ([5]; 0.5 mg/kg, D-3/D3/D9, D8) was 2.50 and the “Mean value … of cold allodynia” value ([5]; 0.5 mg/kg, D-3/D3/D9, D8) was 50.10%. For the same substance, the “Mean value of acetone-induced foot withdrawal response score” value ([5]; 0.5 mg/kg, D-3/D3/D9, D15) was 1.00, the “Mean value … of cold allodynia” value ([5]; 0.5 mg/kg, D-3/D3/D9, D15) was 23.20% and the “Mean value of acetone-induced foot withdrawal response score” value [5, 8] was 0.50. The “Mean value … of cold allodynia” value [5, 8] was 13.30%, the “Mean value of acetone-induced foot withdrawal response score” value ([5]; 2.5 mg/kg, D-3/D3/D9, D8) was 3.30 and the “Mean value … of cold allodynia” value ([5]; 2.5 mg/kg, D-3/D3/D9, D8) was 70.0%. For the same substance, the “Mean value of acetone-induced foot withdrawal response score” value ([5]; 2.5 mg/kg, D-3/D3/D9, D15) was 0.70, the “Mean value … of cold allodynia” value ([5]; 2.5 mg/kg, D-3/D3/D9, D15) was 19.90% and the “Mean value of acetone-induced foot withdrawal response score” value [5, 9] was 0.90. For the same substance, the “Mean value … of cold allodynia” value [5, 9] was 19.90%, the “Mean value of mechanical paw withdrawal threshold” value ([6]; 0.1 mg/kg, D7, paclitaxel model) was 8.90 ± 1.20 g and the “Mean value of mechanical paw withdrawal threshold” value ([6]; 0.1 mg/kg, D14, paclitaxel model) was 10.55 ± 1.04 g. The “Mean value of mechanical paw withdrawal threshold” value ([6]; 0.1 mg/kg, D-5 basal value before administration, paclitaxel model) was 13.48 ± 1.03 g, the “Mean value of mechanical paw withdrawal threshold” value ([6]; 0.5 mg/kg, D7, paclitaxel model) was 10.40 ± 1.33 g and the “Mean value of mechanical paw withdrawal threshold” value ([6]; 0.5 mg/kg, D14, paclitaxel model) was 10.94 ± 1.16 g. The “Mean value of mechanical paw withdrawal threshold” value ([6]; 0.5 mg/kg, D-5 basal value before administration, paclitaxel model) was 13.25 ± 0.98 g, the “Mean value of mechanical paw withdrawal threshold” value ([6]; 2.5 mg/kg, D7, paclitaxel model) was 7.74 ± 1.19 g and the “Mean value of mechanical paw withdrawal threshold” value ([6]; 2.5 mg/kg, D14, paclitaxel model) was 12.30 ± 0.94 g. For the same substance, the “Mean value of mechanical paw withdrawal threshold” value ([6]; 2.5 mg/kg, D-5 basal value before administration, paclitaxel model) was 13.50 ± 0.82 g, the pain threshold ([6]; 0.1-2.5 mg/kg subcutaneously every 6 days for 3 consecutive times, paclitaxel-induced rat neuropathic pain model, summary in words) was “preventatively increased” and the “mechanical paw withdrawal threshold of rats compared with the Vehicle control” value ([6]; paclitaxel model, summary in words) was “significantly increased”.
